Among the test systems are SK-OV-3 ovarian; SK-MEL-5 melanoma; HOP-62 NSCLC; UACC-257 melanoma; UACC-62 melanoma; LOX IMVI melanoma; HS 578T breast; DU-145 prostate; MDA-MB-231 breast; SN12C renal; HT29 colon; U251 CNS; BT-549 breast; KM12 colon; MDA-MB-435.
Common to all, as to experiment: NCI anticancer screen, dose series, 48 h

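Tested at 5 concentrations; 48 h exposure; 96-well plates; endpoints linearly interpolated, else capped at highest concentration. The concentration for full growth arrest is given as TGI.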 Where only a bound is given, the exact number is not on record here.

In the case of `CCOC(=O)C(NC(=O)CC(C)C)(Nc1ccc(S(=O)(=O)Nc2nc(C)cc(C)n2)cc1)C(F)(F)F` (centres undefined), the TGI in the assay on SK-OV-3 ovarian, in the assay on SK-MEL-5 melanoma, in the assay with HOP-62 NSCLC, in the assay with UACC-257 melanoma, with UACC-62 melanoma and in the assay on LOX IMVI melanoma was greater than 100 µM in each case. The TGI in the assay on HS 578T breast, in the assay with DU-145 prostate, in the assay on MDA-MB-231 breast, in the assay on SN12C renal, with HT29 colon and in the assay on U251 CNS was greater than 100 µM in each case. The TGI in the assay on BT-549 breast, in the assay on KM12 colon and in the assay on MDA-MB-435 was greater than 100 µM each time.
For `CN(C)CCCCN1c2ccccc2Sc2cc(N=[N+]=[N-])ccc21`, the TGI in the assay on SK-OV-3 ovarian came to 5.1 µM; with SK-MEL-5 melanoma, 3.18 µM; with HOP-62 NSCLC, 5.22 µM; in the assay with UACC-257 melanoma, 3.25 µM; with UACC-62 melanoma, 3.31 µM; with LOX IMVI melanoma it was 3.06 µM. For the same compound, the TGI with HS 578T breast came to 9.83 µM; with DU-145 prostate, 3.8 µM; in the assay with MDA-MB-231 breast, 3.12 µM; with SN12C renal, 12.1 µM; in the assay with HT29 colon, 2.9 µM; in the assay with U251 CNS, 4.27 µM. Besides, the TGI in the assay on BT-549 breast was found to be 22.9 µM; with KM12 colon, 3.17 µM; in the assay on MDA-MB-435, 3.09 µM.
As for `O=[N+]([O-])c1ccc2[nH]ncc2c1Cl`, the TGI with SK-OV-3 ovarian is greater than 100 µM; in the assay on SK-MEL-5 melanoma, 27 µM; in the assay with HOP-62 NSCLC it was greater than 100 µM; in the assay on UACC-257 melanoma, greater than 100 µM; in the assay with UACC-62 melanoma, greater than 100 µM; in the assay on LOX IMVI melanoma, 38.9 µM. For the same compound, the TGI in the assay with HS 578T breast is 59.3 µM; in the assay with DU-145 prostate it was 32.2 µM; with MDA-MB-231 breast it was 35 µM; with SN12C renal, greater than 100 µM; in the assay on HT29 colon it was 77.4 µM; in the assay with U251 CNS it was greater than 100 µM. The figures for the TGI in the assay with BT-549 breast, in the assay with KM12 colon and with MDA-MB-435 were 89.7 µM, greater than 100 µM and greater than 100 µM, respectively.
For `CC(=O)NC1C(O)C(O)C(CO)OC1n1ncc(=O)[nH]c1=O` (centres undefined), the TGI with SK-OV-3 ovarian, in the assay on SK-MEL-5 melanoma, with HOP-62 NSCLC, with UACC-257 melanoma, in the assay on UACC-62 melanoma and with LOX IMVI melanoma was greater than 100 µM in each case. Besides, the TGI in the assay with HS 578T breast, in the assay with DU-145 prostate, in the assay with MDA-MB-231 breast, in the assay with SN12C renal, with HT29 colon and in the assay with U251 CNS was greater than 100 µM throughout. For the same compound, the TGI with BT-549 breast, in the assay on KM12 colon and with MDA-MB-435 was greater than 100 µM throughout.
As to `COc1cccc2c(Nc3ccc(S(=O)(=O)NC(C)=O)cc3)c3ccc([N+](=O)[O-])cc3nc12`, the TGI in the assay with SK-OV-3 ovarian was greater than 100 µM; in the assay on SK-MEL-5 melanoma, greater than 78.3 µM; in the assay with HOP-62 NSCLC it was greater than 100 µM; in the assay with UACC-257 melanoma, greater than 54.9 µM; in the assay on UACC-62 melanoma, greater than 58.3 µM; in the assay with LOX IMVI melanoma it was greater than 100 µM. Besides, the TGI in the assay on HS 578T breast was greater than 100 µM; in the assay with DU-145 prostate it was greater than 100 µM; in the assay with MDA-MB-231 breast it was 56.6 µM; in the assay on SN12C renal, greater than 100 µM; in the assay on HT29 colon it was 28.5 µM; in the assay with U251 CNS, greater than 53.5 µM. In addition, the TGI with BT-549 breast is greater than 56 µM; in the assay on KM12 colon, greater than 35.3 µM; in the assay on MDA-MB-435, greater than 65.2 µM.
Regarding `CC(=O)OC1COC(n2c(-c3ccc(Cl)cc3)cc(-c3ccccc3)c(C#N)c2=S)C(OC(C)=O)C1OC(C)=O` (centres undefined), the TGI in the assay on SK-OV-3 ovarian is greater than 78.7 µM; with SK-MEL-5 melanoma, greater than 42.2 µM; in the assay with HOP-62 NSCLC, 28.4 µM; in the assay with UACC-257 melanoma, greater than 100 µM; with UACC-62 melanoma it was greater than 31.6 µM; in the assay with LOX IMVI melanoma it was 15.5 µM. The TGI with HS 578T breast is 24.6 µM; in the assay with DU-145 prostate, 41.6 µM; in the assay on MDA-MB-231 breast, 9.38 µM; in the assay with SN12C renal, 31.8 µM; in the assay with HT29 colon, greater than 64.6 µM; in the assay with U251 CNS, 15.5 µM. Moreover, the TGI in the assay with BT-549 breast was greater than 81.8 µM; with KM12 colon it was greater than 100 µM; with MDA-MB-435, greater than 62.4 µM.
Regarding `O=c1c2cccnc2cc(-c2ccccc2)n1CCO`, the TGI with SK-OV-3 ovarian, in the assay on SK-MEL-5 melanoma, in the assay with HOP-62 NSCLC, with UACC-257 melanoma, in the assay on UACC-62 melanoma and in the assay on LOX IMVI melanoma was greater than 100 µM each time. The TGI in the assay on HS 578T breast, in the assay on DU-145 prostate, with MDA-MB-231 breast, in the assay with SN12C renal, in the assay on HT29 colon and with U251 CNS was greater than 100 µM in each case. For the same compound, the TGI in the assay on BT-549 breast, in the assay with KM12 colon and in the assay on MDA-MB-435 was greater than 100 µM throughout.
For `CCCCCC(CO)C(O)(C(F)(F)F)C(F)(F)F` (centres undefined), the TGI in the assay on SK-OV-3 ovarian, in the assay on SK-MEL-5 melanoma, in the assay on HOP-62 NSCLC, in the assay with UACC-257 melanoma, in the assay on UACC-62 melanoma and in the assay on LOX IMVI melanoma was greater than 10 µM throughout. The TGI in the assay with HS 578T breast, in the assay with DU-145 prostate, in the assay on MDA-MB-231 breast, with SN12C renal, in the assay on HT29 colon and in the assay with U251 CNS was greater than 10 µM each time. The TGI in the assay on BT-549 breast, in the assay on KM12 colon and in the assay with MDA-MB-435 was greater than 10 µM each time.
On to `CC1(C)CCCCCCC2OC2CCCCCC(C)(C)C1=O` (centres undefined), for which the TGI in the assay on SK-OV-3 ovarian was greater than 100 µM; with SK-MEL-5 melanoma it was 50.2 µM; in the assay with HOP-62 NSCLC it was greater than 100 µM; in the assay with UACC-257 melanoma, greater than 93.5 µM; with UACC-62 melanoma it was greater than 100 µM; with LOX IMVI melanoma it was greater than 100 µM. The TGI is greater than 100 µM in the assay on HS 578T breast; greater than 100 µM in the assay with DU-145 prostate; greater than 100 µM with MDA-MB-231 breast; greater than 64 µM in the assay with SN12C renal; greater than 60.5 µM in the assay on HT29 colon; 63.2 µM in the assay with U251 CNS. Also, the TGI in the assay on BT-549 breast is greater than 76.6 µM; with KM12 colon, 97 µM; in the assay on MDA-MB-435 it was greater than 100 µM.
For the compound `COc1ccc(C(c2c[nH]c3ccc(Br)cc23)c2c[nH]c3ccc(Br)cc23)cc1`, the TGI in the assay with SK-OV-3 ovarian was found to be 2.58 µM; with SK-MEL-5 melanoma, 1.12 µM; in the assay with HOP-62 NSCLC, 1.22 µM; in the assay with UACC-257 melanoma, 0.947 µM; in the assay on UACC-62 melanoma it was 0.689 µM; in the assay on LOX IMVI melanoma it was 0.314 µM. Also, the TGI was found to be 3.81 µM with HS 578T breast; 1.38 µM with DU-145 prostate; 0.705 µM with MDA-MB-231 breast; 1.03 µM in the assay on HT29 colon; 0.557 µM in the assay on U251 CNS; 3.16 µM in the assay on BT-549 breast. In addition, the TGI came to 0.468 µM in the assay with KM12 colon and 0.42 µM in the assay with MDA-MB-435.
